From patent publication US12544374B2, “AZA-quinoline compounds and uses thereof” (Novartis AG, priority 2019, dated 2026)

Legend:
[1] = biological target: wild type PRC2 (wtPRC2) complex (Homo sapiens (Human), UniProt Q15910); experiment: EZH2 LC-MS assay (LC-Qualified); format: biochemical; settings: (a) LC-Qualified assay
Description: Representative compounds of the invention were serially and separately diluted 3-fold in DMSO to obtain twelve concentrations. […] Solutions (6 μL) of 80 nM wild type PRC2 (wtPRC2) complex and 60 μM SAM in reaction buffer (20 mM Tris, pH 8.0, 0.1% BSA, 0.01% Triton, 0.5 mM DTT) were added to the wells that were then incubated with the test compound for 20 min. A 6 μL solution of 3 μM of the substrate peptide H3K27me1 (histone H3[21-44]-K27me1-biotin) and 6 μM regulatory peptide H3K27me3 (histone H3[21-44]-K27me3) in reaction buffer was added to initiate each reaction. […] The data were fit to a dose response equation using the program Helios to get the IC50 values of the test compound.

[2] = biological target: EZH2 (Homo sapiens (Human), UniProt Q15910); experiment: ELISA (H3K27 methylation) assay in G401 cell; format: cell-based; settings: (b) ELISA Qualified assay, 48 h
Description: Representative compounds of the invention were serially and separately diluted 3-fold in DO to obtain a total of eight or twelve concentrations. Then the compounds were added to G401 cell cultured in 384-well plate at 1:500 dilution to obtain the highest concentration of 20 μM. The cells were further cultured for 48 h before ELISA procedure.
ELISA protocol: Cell lysates were transferred to the wells of a 384-well plate and the final volume was adjusted to 50 μL per well with PBS. The plate was sealed, centrifuged at 2,000 rpm for 2 min and incubated at 4° C. for about 16 h. The plate was washed with TBST buffer (1×TBS (10×TBS: 24.2 g Tris (Sigma, T6066), 80 g NaCl (Sigma, S3014) to 1 L of water and adjust pH to 7.6 with HCl) with 0.1% Tween-20). Blocking buffer (TBST, 5% BSA; 50 μL per well) was added and the plate was incubated for 1 h at rt. The blocking buffer was removed and primary antibody was added (30 μL per well). […] The primary antibody was incubated in the plate at rt for 1 h. The wells were washed with TBST and incubated with secondary antibody for 1 h at rt.
After 1 h of incubation at rt, the wells were washed with TBST. […] The signal was read using a PerkinElmer Envision Reader. The H3K27 methylation readouts were normalized using H3 signal and then percentage inhibition was calculated against the samples treated with DO. The data were fit to a dose response curve using the program Helios to get the IC50 values of the test compound.

Chain of EZH2 (Q15910 whole entry): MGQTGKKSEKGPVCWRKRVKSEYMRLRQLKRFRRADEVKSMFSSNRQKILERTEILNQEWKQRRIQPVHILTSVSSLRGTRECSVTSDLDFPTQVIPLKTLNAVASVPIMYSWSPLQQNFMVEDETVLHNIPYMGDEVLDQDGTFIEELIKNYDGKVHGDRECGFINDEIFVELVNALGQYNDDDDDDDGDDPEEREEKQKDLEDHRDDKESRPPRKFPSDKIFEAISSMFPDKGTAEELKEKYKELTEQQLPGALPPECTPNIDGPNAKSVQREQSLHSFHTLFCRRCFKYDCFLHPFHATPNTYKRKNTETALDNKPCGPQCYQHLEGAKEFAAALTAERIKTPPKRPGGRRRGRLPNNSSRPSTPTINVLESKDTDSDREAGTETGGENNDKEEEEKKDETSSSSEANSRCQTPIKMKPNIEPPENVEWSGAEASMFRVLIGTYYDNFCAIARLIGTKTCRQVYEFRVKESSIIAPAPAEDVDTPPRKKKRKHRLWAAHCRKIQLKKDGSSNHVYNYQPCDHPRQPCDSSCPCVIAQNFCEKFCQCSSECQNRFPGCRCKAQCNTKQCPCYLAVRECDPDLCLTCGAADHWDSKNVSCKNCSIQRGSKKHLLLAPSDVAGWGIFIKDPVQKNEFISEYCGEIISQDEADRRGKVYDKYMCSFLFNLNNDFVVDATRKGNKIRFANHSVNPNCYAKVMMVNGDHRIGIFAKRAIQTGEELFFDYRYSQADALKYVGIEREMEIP
Chain of EZH2 (Q15022 whole entry partner): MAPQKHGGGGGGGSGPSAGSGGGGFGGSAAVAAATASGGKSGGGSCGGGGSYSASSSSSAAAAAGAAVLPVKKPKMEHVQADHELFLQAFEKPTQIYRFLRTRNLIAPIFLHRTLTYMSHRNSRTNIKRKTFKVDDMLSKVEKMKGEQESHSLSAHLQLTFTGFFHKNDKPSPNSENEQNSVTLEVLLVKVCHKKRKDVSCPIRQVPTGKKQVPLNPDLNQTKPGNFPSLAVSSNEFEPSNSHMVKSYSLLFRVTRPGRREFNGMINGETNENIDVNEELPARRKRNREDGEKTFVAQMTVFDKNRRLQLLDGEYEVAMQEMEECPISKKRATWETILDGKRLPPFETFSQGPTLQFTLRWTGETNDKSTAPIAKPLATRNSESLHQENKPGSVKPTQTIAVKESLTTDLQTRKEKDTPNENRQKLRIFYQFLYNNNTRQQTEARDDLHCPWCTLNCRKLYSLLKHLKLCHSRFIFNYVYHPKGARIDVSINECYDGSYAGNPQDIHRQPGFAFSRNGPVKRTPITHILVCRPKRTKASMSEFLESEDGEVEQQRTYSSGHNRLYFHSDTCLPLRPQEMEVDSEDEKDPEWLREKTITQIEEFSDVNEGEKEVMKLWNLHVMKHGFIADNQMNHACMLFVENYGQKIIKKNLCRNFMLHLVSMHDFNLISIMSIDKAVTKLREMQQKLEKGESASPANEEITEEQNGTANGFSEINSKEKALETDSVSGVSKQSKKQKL
Chain of EZH2 (O75530 whole entry partner): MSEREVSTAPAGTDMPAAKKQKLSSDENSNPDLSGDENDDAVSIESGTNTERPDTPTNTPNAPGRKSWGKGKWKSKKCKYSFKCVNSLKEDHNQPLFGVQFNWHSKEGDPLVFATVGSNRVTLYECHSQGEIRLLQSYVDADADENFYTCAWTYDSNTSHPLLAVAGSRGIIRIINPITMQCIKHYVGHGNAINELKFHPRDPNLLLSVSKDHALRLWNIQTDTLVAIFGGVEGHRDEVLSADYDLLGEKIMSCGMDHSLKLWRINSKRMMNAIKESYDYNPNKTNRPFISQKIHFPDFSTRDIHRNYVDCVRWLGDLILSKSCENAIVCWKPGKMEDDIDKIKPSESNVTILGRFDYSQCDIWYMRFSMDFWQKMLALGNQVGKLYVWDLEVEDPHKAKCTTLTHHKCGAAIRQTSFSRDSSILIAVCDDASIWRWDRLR
Chain of EZH2 (Q09028 whole entry partner): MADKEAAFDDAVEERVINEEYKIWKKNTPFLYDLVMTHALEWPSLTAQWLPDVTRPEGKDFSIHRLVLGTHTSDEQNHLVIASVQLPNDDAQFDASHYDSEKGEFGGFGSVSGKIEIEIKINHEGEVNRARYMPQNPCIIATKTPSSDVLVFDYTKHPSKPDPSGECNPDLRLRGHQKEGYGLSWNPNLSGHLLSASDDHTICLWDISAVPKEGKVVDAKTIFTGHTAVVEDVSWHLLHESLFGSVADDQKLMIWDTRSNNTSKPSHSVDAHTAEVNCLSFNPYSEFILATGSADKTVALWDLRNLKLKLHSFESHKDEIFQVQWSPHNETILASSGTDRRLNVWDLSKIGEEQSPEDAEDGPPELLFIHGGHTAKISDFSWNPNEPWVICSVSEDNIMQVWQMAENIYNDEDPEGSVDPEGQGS
Chain of wild type PRC2 (wtPRC2) complex (Q15910 whole entry): as the sequence (Q15910 whole entry) above
Chain of wild type PRC2 (wtPRC2) complex (Q15022 whole entry partner): as the sequence (Q15022 whole entry partner) above
Chain of wild type PRC2 (wtPRC2) complex (O75530 whole entry partner): as the sequence (O75530 whole entry partner) above
Chain of wild type PRC2 (wtPRC2) complex (Q09028 whole entry partner): as the sequence (Q09028 whole entry partner) above
Chain of wild type PRC2 (wtPRC2) complex (Q6ZN18 whole entry partner): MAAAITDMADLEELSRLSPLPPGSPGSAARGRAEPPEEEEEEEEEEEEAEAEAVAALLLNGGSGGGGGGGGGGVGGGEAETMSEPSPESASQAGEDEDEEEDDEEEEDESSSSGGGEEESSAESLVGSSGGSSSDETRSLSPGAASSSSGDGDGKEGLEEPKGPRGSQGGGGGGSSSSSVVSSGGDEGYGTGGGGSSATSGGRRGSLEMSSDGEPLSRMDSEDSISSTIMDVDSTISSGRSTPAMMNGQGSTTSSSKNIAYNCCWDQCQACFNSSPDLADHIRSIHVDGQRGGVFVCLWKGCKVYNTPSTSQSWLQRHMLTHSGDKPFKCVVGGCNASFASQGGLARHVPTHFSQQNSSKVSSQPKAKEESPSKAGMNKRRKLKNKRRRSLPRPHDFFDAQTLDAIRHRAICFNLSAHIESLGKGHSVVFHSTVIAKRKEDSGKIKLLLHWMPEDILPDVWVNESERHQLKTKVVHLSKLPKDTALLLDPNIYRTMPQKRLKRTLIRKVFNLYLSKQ

Row | IC50 [1] [µM] | IC50 [2] [µM] | SMILES
1 | 0.088 | 0.01 | O=C(Nc1cnc(NC[C@H]2CC[C@H](Nc3ccc4ccnc(Cl)c4n3)CC2)nc1)OCCO [Compound C17, 2-hydroxyethyl (2-((((1,4-trans)-4-((8-chloro-1,7-naphthyridin-2-yl)amino)cyclohexyl)methyl)amino)pyrimidin-5-yl)carbamate]
2 | 0.068 | 0.127 | O=C(CCC(=O)N1CCOCC1)Nc1cnc(NC[C@H]2CC[C@H](Nc3ccc4ccnc(Cl)c4n3)CC2)nc1 [Compound C20, N-(2-((((1,4-trans)-4-((8-chloro-1,7-naphthyridin-2-yl)amino)cyclohexyl)methyl)amino)pyrimidin-5-yl)-4-morpholino-4-oxobutanamide]
3 | 0.035 | 0.136 | CC(C(=O)N1CC(O)C1)c1cnc(NC[C@H]2CC[C@H](Nc3ccc4ccnc(Cl)c4n3)CC2)nc1 (mixture of isomers) [Compound C69, 2-(2-((((1,4-trans)-4-((8-chloro-1,7-naphthyridin-2-yl)amino)cyclohexyl)methyl)amino)pyrimidin-5-yl)-1-(3-hydroxyazetidin-1-yl)propan-1-one]
4 | 0.204 | 0.16 | Nc1cnc(NC[C@H]2CC[C@H](Nc3ccc4ccnc(OC(F)F)c4n3)CC2)nc1 [Compound C66, N^2-(((1,4-trans)-4-((8-(difluoromethoxy)-1,7-naphthyridin-2-yl)amino)cyclohexyl)methyl)pyrimidine-2,5-diamine]
5 | 0.087 | 0.783 | COc1nccc2ccc(N[C@H]3CC[C@H](CNc4ncc(NC(=O)C5CNC5)cn4)CC3)nc12 [Compound C2, N-(2-((((1,4-trans)-4-((8-methoxy-1,7-naphthyridin-2-yl)amino)cyclohexyl)methyl)amino)pyrimidin-5-yl)azetidine-3-carboxamide]
6 | 0.12 | 0.029 | COc1nccc2ccc(N[C@H]3CC[C@H](CNc4ncc(C(=O)N5CCN(C)CC5)cn4)CC3)nc12 [Compound C11, (2-((((1,4-trans)-4-((8-methoxy-1,7-naphthyridin-2-yl)amino)cyclohexyl)methyl)amino)pyrimidin-5-yl)(4-methylpiperazin-1-yl)methanone]
7 | 0.116 | 0.056 | Nc1cnc(NC[C@H]2CC[C@H](Nc3ccc4ccnc(Cl)c4n3)CC2)nc1 [Compound C14, N^2-(((1,4-trans)-4-((8-chloro-1,7-naphthyridin-2-yl)amino)cyclohexyl)methyl)pyrimidine-2,5-diamine]
8 | 0.022 | 0.021 | CNc1nccc2ccc(N[C@H]3CC[C@H](CNc4ncc(C#N)cn4)CC3)nc12 [Compound C60, 2-((((1,4-trans)-4-((8-(methylamino)-1,7-naphthyridin-2-yl)amino)cyclohexyl)methyl)amino)pyrimidine-5-carbonitrile]
9 | 0.024 | 0.029 | O=C(Cc1cnc(NC[C@H]2CC[C@H](Nc3ccc4ccnc(Cl)c4n3)CC2)nc1)N1CC(O)C1 [Compound C38, 2-(2-((((1,4-trans)-4-((8-chloro-1,7-naphthyridin-2-yl)amino)cyclohexyl)methyl)amino)pyrimidin-5-yl)-1-(3-hydroxyazetidin-1-yl)ethan-1-one]
10 | 0.04 | 0.04 | N#Cc1cnc(NC[C@H]2CC[C@H](Nc3ccc4ccnc(Cl)c4n3)CC2)nc1 [Compound C21, 2-((((1,4-trans)-4-((8-chloro-1,7-naphthyridin-2-yl)amino)cyclohexyl)methyl)amino)pyrimidine-5-carbonitrile]
11 | 0.054 | 0.002 | CC(C(=O)N(C)C1COC1)c1cnc(NC[C@H]2CC[C@H](Nc3ccc4ccnc(Cl)c4n3)CC2)nc1 (mixture of isomers) [Compound C55, 2-(2-((((1,4-trans)-4-((8-chloro-1,7-naphthyridin-2-yl)amino)cyclohexyl)methyl)amino)pyrimidin-5-yl)-N-methyl-N-(oxetan-3-yl)propanamide]
12 | 0.039 | 0.027 | Clc1nccc2ccc(N[C@H]3CC[C@H](CNc4ncc(CCNC5COC5)cn4)CC3)nc12 [Compound C48, 8-chloro-N-((1,4-trans)-4-(((5-(2-(oxetan-3-ylamino)ethyl)pyrimidin-2-yl)amino)methyl)cyclohexyl)-1,7-naphthyridin-2-amine]
13 | 0.046 | 0.031 | COc1nccc2ccc(N[C@H]3CC[C@H](CNc4ncc(C#N)cn4)CC3)nc12 [Compound C4, 2-((((1,4-trans)-4-((8-methoxy-1,7-naphthyridin-2-yl)amino)cyclohexyl)methyl)amino)pyrimidine-5-carbonitrile]
14 | 0.023 | 0.027 | CCN(CCC#N)C(=O)Cc1cnc(NC[C@H]2CC[C@H](Nc3ccc4ccnc(Cl)c4n3)CC2)nc1 [Compound C50, 2-(2-((((1,4-trans)-4-((8-chloro-1,7-naphthyridin-2-yl)amino)cyclohexyl)methyl)amino)pyrimidin-5-yl)-N-(2-cyanoethyl)-N-ethylacetamide]
15 | 0.026 | 0.06 | Clc1nccc2ccc(N[C@H]3CC[C@H](CNc4ncc(CNCC5COC5)cn4)CC3)nc12 [Compound C31, 8-chloro-N-((1,4-trans)-4-(((5-(((oxetan-3-ylmethyl)amino)methyl)pyrimidin-2-yl)amino)methyl)cyclohexyl)-1,7-naphthyridin-2-amine]
16 | 0.053 | 0.054 | O=C1OCCN1c1cnc(NC[C@H]2CC[C@H](Nc3ccc4ccnc(Cl)c4n3)CC2)nc1 [Compound C64, 3-(2-((((1,4-trans)-4-((8-chloro-1,7-naphthyridin-2-yl)amino)cyclohexyl)methyl)amino)pyrimidin-5-yl)oxazolidin-2-one]
17 | 0.029 | 0.036 | Clc1nccc2ccc(N[C@H]3CC[C@H](CNc4ncc(-c5nnc[nH]5)cn4)CC3)nc12 [Compound C67, N-((1,4-trans)-4-(((5-(4H-1,2,4-triazol-3-yl)pyrimidin-2-yl)amino)methyl)cyclohexyl)-8-chloro-1,7-naphthyridin-2-amine]
18 | 0.049 | 0.018 | CC(CO)Oc1cnc(NC[C@H]2CC[C@H](Nc3ccc4ccnc(Cl)c4n3)CC2)nc1 (stereo partly drawn) [Compound C68, 2-((2-((((1,4-trans)-4-((8-chloro-1,7-naphthyridin-2-yl)amino)cyclohexyl)methyl)amino)pyrimidin-5-yl)oxy)propan-1-ol]
19 | 0.111 | 0.131 | COc1nccc2ccc(N[C@H]3CC[C@H](CNc4ncc(NC(=O)CO)cn4)CC3)nc12 [Compound C7, 2-hydroxy-N-(2-((((1,4-trans)-4-((8-methoxy-1,7-naphthyridin-2-yl)amino)cyclohexyl)methyl)amino)pyrimidin-5-yl)acetamide]

Row | SMILES | IC50 [1] [µM] | IC50 [2] [µM]
20 | CN1CCN(C(=O)Cc2cnc(NC[C@H]3CC[C@H](Nc4ccc5ccnc(Cl)c5n4)CC3)nc2)CC1 [Compound C43, 2-(2-((((1,4-trans)-4-((8-chloro-1,7-naphthyridin-2-yl)amino)cyclohexyl)methyl)amino)pyrimidin-5-yl)-1-(4-methylpiperazin-1-yl)ethan-1-one] | 0.057 | 0.067
21 | O=C(Cc1cnc(NC[C@H]2CC[C@H](Nc3ccc4ccnc(Cl)c4n3)CC2)nc1)N1CCN(CCO)CC1 [Compound C40, 2-(2-((((1,4-trans)-4-((8-chloro-1,7-naphthyridin-2-yl)amino)cyclohexyl)methyl)amino)pyrimidin-5-yl)-1-(4-(2-hydroxyethyl)piperazin-1-yl)ethan-1-one] | 0.046 | 0.028
